Source: ChEMBL document CHEMBL4706534, “1,2,3-Triazole-containing hybrids with potential antibacterial activity against methicillin-resistant Staphylococcus aureus (MRSA)” (Eur J Med Chem, 2020)
Converted amounts (≈) assume the structure as drawn.

Columns and labels:
Staphylococcus aureus [1] = test: Antibacterial activity against Methicillin-resistant Staphylococcus aureus ATCC 33591; assay type: functional, organism-based
Enterococcus = test: Antibacterial activity against vancomycin resistant Enterococcus ATCC 51299; assay type: functional
Enterococcus faecalis = test: Antibacterial activity against vancomycin susceptible Enterococcus faecalis ATCC 29212; assay type: functional
Staphylococcus aureus [2] = test: Antibacterial activity against Staphylococcus aureus ATCC 25923 incubated for 24 hrs by two fold serial dilution method; assay type: functional
Staphylococcus aureus [3] = test: Antibacterial activity against Methicillin-resistant Staphylococcus aureus N315 incubated for 24 hrs by two fold serial dilution method; assay type: functional
Staphylococcus aureus [4] = test: Antibacterial activity against methicillin-sensitive Staphylococcus aureus ATCC 29213 by broth microdilution method; assay type: functional
Staphylococcus aureus [5] = test: Antibacterial activity against methicillin-resistant Staphylococcus aureus ATCC 33591 by broth microdilution method; assay type: functional
Staphylococcus aureus [6] = test: Resistance index, ratio of MIC for antibacterial activity against Staphylococcus aureus ATCC 43300 incubated for 16 to 18 hrs by CLSI based assay to MIC for antibacterial activity against Staphylococcus aureus DSM 20231 incubated for 16 to 18 hrs by CLSI based assay; assay type: functional; details: time 16-18 hrs
Staphylococcus aureus [7] = test: Antibacterial activity against methicillin-resistant Staphylococcus aureus ATCC 43300 incubated for 16 to 18 hrs by CLSI based assay; assay type: functional; details: time 16-18 hrs
Staphylococcus aureus [8] = test: Antibacterial activity against Staphylococcus aureus ATCC 25923 by CLSI-based broth microdilution method; assay type: functional

With CN[C@H](CC(C)C)C(=O)N[C@@H]1Cc2ccc(c(Cl)c2)Oc2cc3cc(c2O[C@@H]2O[C@H](CO)[C@@H](O)[C@H](O)[C@H]2O[C@H]2C[C@](C)(N)[C@H](O)[C@H](C)O2)Oc2ccc(cc2Cl)[C@@H](O)[C@@H]2NC(=O)[C@H](NC(=O)[C@@H]3NC(=O)[C@H](CC(=O)O)NC1=O)c1ccc(O)c(c1)-c1c(O)cc(O)cc1[C@H](C(=O)NCCCc1cn(CCOCCOCCOCCNC(=O)[C@@H]3NC(=O)[C@H]4NC(=O)[C@H](NC(=O)[C@@H]5NC(=O)[C@H](CC(=O)O)NC(=O)[C@H](NC(=O)[C@@H](CC(C)C)NC)Cc6ccc(c(Cl)c6)Oc6cc5cc(c6O[C@@H]5O[C@H](CO)[C@@H](O)[C@H](O)[C@H]5O[C@H]5C[C@](C)(N)[C@H](O)[C@H](C)O5)Oc5ccc(cc5Cl)[C@H]4O)c4ccc(O)c(c4)-c4c(O)cc(O)cc43)nn1)NC2=O the MIC (Staphylococcus aureus [1]) was 0.5 µg/mL (≈ 0.16 µM), the MIC (Enterococcus) was 0.5 µg/mL (≈ 0.16 µM) and the MIC (Enterococcus faecalis) was 0.5 µg/mL (≈ 0.16 µM).

Work on O=c1c2ccc(Cl)cc2ncn1CC(O)Cn1nnc2ccccc21 (centres undefined) yielded an MIC (Staphylococcus aureus [2]) of no less than 64 µg/mL and an MIC (Staphylococcus aureus [3]) of no less than 64 µg/mL.

CC(=O)N[C@H]1[C@H](O[C@@H]2c3ccc(c(Cl)c3)Oc3cc4cc(c3O)Oc3ccc(cc3Cl)C[C@H]3NC(=O)[C@H](n5cc(CO[C@H]6[C@@H](OCc7ccccc7)[C@@H](COCc7ccccc7)O[C@@H](O[C@H]7[C@H](OCc8ccccc8)[C@@H](OCc8ccccc8)[C@H](Sc8ccccc8)O[C@@H]7COCc7ccccc7)[C@@H]6OCc6ccccc6)nn5)c5ccc(O)c(c5)Oc5cc(O)cc(c5)[C@H](NC3=O)C(=O)N[C@H]4C(=O)N[C@H]3C(=O)N[C@@H]2C(=O)N[C@@H](C(=O)O)c2cc(O)cc(O)c2-c2cc3ccc2O)O[C@H](CO)[C@@H](O)[C@@H]1O was tested, and the MIC (Staphylococcus aureus [4]) was 32 µg/mL (≈ 13.1 µM) and the MIC (Staphylococcus aureus [5]) was 32 µg/mL (≈ 13.1 µM).

CC(=O)N[C@H]1[C@H](O[C@@H]2c3ccc(c(Cl)c3)Oc3cc4cc(c3O)Oc3ccc(cc3Cl)C[C@H]3NC(=O)[C@H](n5cc(COc6ccccc6)nn5)c5ccc(O)c(c5)Oc5cc(O)cc(c5)[C@H](NC3=O)C(=O)N[C@H]4C(=O)N[C@H]3C(=O)N[C@@H]2C(=O)N[C@@H](C(=O)O)c2cc(O)cc(O)c2-c2cc3ccc2O)O[C@H](CO)[C@@H](O)[C@@H]1O was tested, and the MIC (Staphylococcus aureus [4]) was 0.5 µg/mL (≈ 0.32 µM) and the MIC (Staphylococcus aureus [5]) was 0.5 µg/mL (≈ 0.32 µM).

Compound Cc1ccc2c(c1)nnn2CC(O)Cn1cnc2cc(Cl)ccc2c1=O (centres undefined) has an MIC (Staphylococcus aureus [2]) of no less than 64 µg/mL and an MIC (Staphylococcus aureus [3]) of no less than 64 µg/mL.

Work on CCCCCCCCc1cn([C@H]2C(=O)N[C@@H]3Cc4ccc(c(Cl)c4)Oc4cc5cc(c4O)Oc4ccc(cc4Cl)[C@@H](O[C@@H]4O[C@H](CO)[C@@H](O)[C@H](O)[C@H]4NC(C)=O)[C@@H]4NC(=O)[C@H](NC(=O)[C@@H]5NC(=O)[C@@H](NC3=O)c3cc(O)cc(c3)Oc3cc2ccc3O)c2ccc(O)c(c2)-c2c(O)cc(O)cc2[C@H](C(=O)O)NC4=O)nn1 yielded an MIC (Staphylococcus aureus [4]) of 0.16 µg/mL (≈ 0.102 µM) and an MIC (Staphylococcus aureus [5]) of 0.16 µg/mL (≈ 0.102 µM).

Work on N=C(N)NCCC[C@H](NC(=O)[C@H](Cc1c[nH]c2ccccc12)NC(=O)[C@H](CCCNC(=N)N)NC(=O)[C@H](Cc1c[nH]c2ccccc12)NC(=O)[C@@H](N)CCCNC(=N)N)C(=O)N[C@@H](Cc1c[nH]c2ccccc12)C(=O)N[C@@H](CCCCn1cc(COc2ccccc2)nn1)C(N)=O yielded a Ratio (Staphylococcus aureus [6]) of 0.5 and an MIC (Staphylococcus aureus [7]) of 2.7 µM (≈ 3.59 µg/mL).

Compound CC(=O)N[C@H]1[C@H](O[C@@H]2c3ccc(c(Cl)c3)Oc3cc4cc(c3O)Oc3ccc(cc3Cl)C[C@H]3NC(=O)[C@H](n5cc(COC[C@H]6O[C@@H]7OC(C)(C)O[C@@H]7[C@H]7OC(C)(C)O[C@H]76)nn5)c5ccc(O)c(c5)Oc5cc(O)cc(c5)[C@H](NC3=O)C(=O)N[C@H]4C(=O)N[C@H]3C(=O)N[C@@H]2C(=O)N[C@@H](C(=O)O)c2cc(O)cc(O)c2-c2cc3ccc2O)O[C@H](CO)[C@@H](O)[C@@H]1O has an MIC (Staphylococcus aureus [4]) of 0.5 µg/mL (≈ 0.29 µM) and an MIC (Staphylococcus aureus [5]) of 0.5 µg/mL (≈ 0.29 µM).

Work on CN[C@H](CC(C)C)C(=O)N[C@@H]1Cc2ccc(c(Cl)c2)Oc2cc3cc(c2O[C@@H]2O[C@H](CO)[C@@H](O)[C@H](O)[C@H]2O[C@H]2C[C@](C)(N)[C@H](O)[C@H](C)O2)Oc2ccc(cc2Cl)[C@@H](O)[C@@H]2NC(=O)[C@H](NC(=O)[C@@H]3NC(=O)[C@H](CC(=O)O)NC1=O)c1ccc(O)c(c1)-c1c(O)cc(O)cc1[C@H](C(=O)NCCCCc1cn(CCOCCOCCOCCNC(=O)[C@@H]3NC(=O)[C@H]4NC(=O)[C@H](NC(=O)[C@@H]5NC(=O)[C@H](CC(=O)O)NC(=O)[C@H](NC(=O)[C@@H](CC(C)C)NC)Cc6ccc(c(Cl)c6)Oc6cc5cc(c6O[C@@H]5O[C@H](CO)[C@@H](O)[C@H](O)[C@H]5O[C@H]5C[C@](C)(N)[C@H](O)[C@H](C)O5)Oc5ccc(cc5Cl)[C@H]4O)c4ccc(O)c(c4)-c4c(O)cc(O)cc43)nn1)NC2=O yielded an MIC (Staphylococcus aureus [1]) of 0.5 µg/mL (≈ 0.159 µM), an MIC (Enterococcus) of 0.5 µg/mL (≈ 0.159 µM) and an MIC (Enterococcus faecalis) of 0.5 µg/mL (≈ 0.159 µM).

N=C(N)NCCC[C@H](NC(=O)[C@H](Cc1c[nH]c2ccccc12)NC(=O)[C@H](CCCNC(=N)N)NC(=O)[C@H](Cc1c[nH]c2ccccc12)NC(=O)[C@@H](N)CCCNC(=N)N)C(=O)N[C@@H](Cc1c[nH]c2ccccc12)C(=O)N[C@@H](CCCCn1cc(COc2cc(OCc3cn(CCCC[C@H](NC(=O)[C@H](Cc4c[nH]c5ccccc45)NC(=O)[C@H](CCCNC(=N)N)NC(=O)[C@H](Cc4c[nH]c5ccccc45)NC(=O)[C@H](CCCNC(=N)N)NC(=O)[C@H](Cc4c[nH]c5ccccc45)NC(=O)[C@@H](N)CCCNC(=N)N)C(N)=O)nn3)cc(OCc3cn(CCCC[C@H](NC(=O)[C@H](Cc4c[nH]c5ccccc45)NC(=O)[C@H](CCCNC(=N)N)NC(=O)[C@H](Cc4c[nH]c5ccccc45)NC(=O)[C@H](CCCNC(=N)N)NC(=O)[C@H](Cc4c[nH]c5ccccc45)NC(=O)[C@@H](N)CCCNC(=N)N)C(N)=O)nn3)c2)nn1)C(N)=O was tested, and the Ratio (Staphylococcus aureus [6]) was 0.5 and the MIC (Staphylococcus aureus [7]) was 2.7 µM (≈ 10.4 µg/mL).

CCCCCCCCOCc1cn([C@H]2C(=O)N[C@@H]3Cc4ccc(c(Cl)c4)Oc4cc5cc(c4O)Oc4ccc(cc4Cl)[C@@H](O[C@@H]4O[C@H](CO)[C@@H](O)[C@H](O)[C@H]4NC(C)=O)[C@@H]4NC(=O)[C@H](NC(=O)[C@@H]5NC(=O)[C@@H](NC3=O)c3cc(O)cc(c3)Oc3cc2ccc3O)c2ccc(O)c(c2)-c2c(O)cc(O)cc2[C@H](C(=O)O)NC4=O)nn1 was tested, and the MIC (Staphylococcus aureus [4]) was 0.5 µg/mL (≈ 0.313 µM) and the MIC (Staphylococcus aureus [5]) was 0.5 µg/mL (≈ 0.313 µM).

With CN[C@H](CC(C)C)C(=O)N[C@@H]1Cc2ccc(c(Cl)c2)Oc2cc3cc(c2O[C@@H]2O[C@H](CO)[C@@H](O)[C@H](O)[C@H]2O[C@H]2C[C@](C)(N)[C@H](O)[C@H](C)O2)Oc2ccc(cc2Cl)[C@@H](O)[C@@H]2NC(=O)[C@H](NC(=O)[C@@H]3NC(=O)[C@H](CC(=O)O)NC1=O)c1ccc(O)c(c1)-c1c(O)cc(O)cc1[C@H](C(=O)NCCOCCOCCOCCn1cc(CCNC(=O)[C@@H]3NC(=O)[C@H]4NC(=O)[C@H](NC(=O)[C@@H]5NC(=O)[C@H](CC(=O)O)NC(=O)[C@H](NC(=O)[C@@H](CC(C)C)NC)Cc6ccc(c(Cl)c6)Oc6cc5cc(c6O[C@@H]5O[C@H](CO)[C@@H](O)[C@H](O)[C@H]5O[C@H]5C[C@](C)(N)[C@H](O)[C@H](C)O5)Oc5ccc(cc5Cl)[C@H]4O)c4ccc(O)c(c4)-c4c(O)cc(O)cc43)nn1)NC2=O the MIC (Staphylococcus aureus [1]) was 0.5 µg/mL (≈ 0.16 µM), the MIC (Enterococcus) was 0.5 µg/mL (≈ 0.16 µM) and the MIC (Enterococcus faecalis) was 0.5 µg/mL (≈ 0.16 µM).

With CN[C@H](CC(C)C)C(=O)N[C@@H]1Cc2ccc(c(Cl)c2)Oc2cc3cc(c2O[C@@H]2O[C@H](CO)[C@@H](O)[C@H](O)[C@H]2O[C@H]2C[C@](C)(N)[C@H](O)[C@H](C)O2)Oc2ccc(cc2Cl)[C@@H](O)[C@@H]2NC(=O)[C@H](NC(=O)[C@@H]3NC(=O)[C@H](CC(=O)O)NC1=O)c1ccc(O)c(c1)-c1c(O)cc(O)cc1[C@H](C(=O)NCCCCCc1cn(CCOCCOCCOCCNC(=O)[C@@H]3NC(=O)[C@H]4NC(=O)[C@H](NC(=O)[C@@H]5NC(=O)[C@H](CC(=O)O)NC(=O)[C@H](NC(=O)[C@@H](CC(C)C)NC)Cc6ccc(c(Cl)c6)Oc6cc5cc(c6O[C@@H]5O[C@H](CO)[C@@H](O)[C@H](O)[C@H]5O[C@H]5C[C@](C)(N)[C@H](O)[C@H](C)O5)Oc5ccc(cc5Cl)[C@H]4O)c4ccc(O)c(c4)-c4c(O)cc(O)cc43)nn1)NC2=O the MIC (Staphylococcus aureus [1]) was 0.5 µg/mL (≈ 0.158 µM), the MIC (Enterococcus) was 0.5 µg/mL (≈ 0.158 µM) and the MIC (Enterococcus faecalis) was 0.5 µg/mL (≈ 0.158 µM).

N=C(N)NCCC[C@H](NC(=O)[C@H](Cc1c[nH]c2ccccc12)NC(=O)[C@H](CCCNC(=N)N)NC(=O)[C@H](Cc1c[nH]c2ccccc12)NC(=O)[C@@H](N)CCCNC(=N)N)C(=O)N[C@@H](Cc1c[nH]c2ccccc12)C(=O)N[C@@H](CCCCn1cc(COc2cccc(OCc3cn(CCCC[C@H](NC(=O)[C@H](Cc4c[nH]c5ccccc45)NC(=O)[C@H](CCCNC(=N)N)NC(=O)[C@H](Cc4c[nH]c5ccccc45)NC(=O)[C@H](CCCNC(=N)N)NC(=O)[C@H](Cc4c[nH]c5ccccc45)NC(=O)[C@@H](N)CCCNC(=N)N)C(N)=O)nn3)c2)nn1)C(N)=O was tested, and the Ratio (Staphylococcus aureus [6]) was 0.5 and the MIC (Staphylococcus aureus [7]) was 2.7 µM (≈ 6.97 µg/mL).

With CC(=O)N[C@H]1[C@H](O[C@@H]2c3ccc(c(Cl)c3)Oc3cc4cc(c3O)Oc3ccc(cc3Cl)C[C@H]3NC(=O)[C@H](n5cc(COc6cccc7ccccc67)nn5)c5ccc(O)c(c5)Oc5cc(O)cc(c5)[C@H](NC3=O)C(=O)N[C@H]4C(=O)N[C@H]3C(=O)N[C@@H]2C(=O)N[C@@H](C(=O)O)c2cc(O)cc(O)c2-c2cc3ccc2O)O[C@H](CO)[C@@H](O)[C@@H]1O the MIC (Staphylococcus aureus [4]) was 0.5 µg/mL (≈ 0.31 µM) and the MIC (Staphylococcus aureus [5]) was 0.5 µg/mL (≈ 0.31 µM).

With O=c1c2ccc(F)cc2ncn1CC(O)Cn1nnc2ccccc21 (centres undefined) the MIC (Staphylococcus aureus [2]) was no less than 64 µg/mL and the MIC (Staphylococcus aureus [3]) was no less than 64 µg/mL.

Cc1ccc2c(c1)nnn2CC(O)Cn1cnc2cc(F)ccc2c1=O (centres undefined) was tested, and the MIC (Staphylococcus aureus [2]) was no less than 64 µg/mL and the MIC (Staphylococcus aureus [3]) was no less than 64 µg/mL.

Work on CC1(C)S[C@@H]2[C@H](NC(=O)[C@H](N)c3ccccc3)C(=O)N2[C@H]1C(=O)O [AMPICILLIN] yielded an MIC (Staphylococcus aureus [8]) of 4 µg/mL (≈ 11.4 µM).
